Among the data in patent US20210300936A1, “PYRAZOLOTRIAZOLOPYRIMIDINE DERIVATIVES AS A2A RECEPTOR ANTAGONIST” (BEIGENE, LTD., priority 2018, published 2021) are IC50 values, retold here.

In general, IC50 refers to the point on the concentration scale where inhibition reaches its midpoint.

Molecules are shown by their SMILES.

For the assay, the target named is human A2A receptor (A2AR) (Homo sapiens, UniProt P29274). The assay can be described thus: Luciferase reporter assay (HEK293-A2AR-luc2p/CRE/Hygro cells, 3 nM CGS21680). In kind it is cell-based. The note with it: 3 nM CGS21680, 5 h incubation. Summed up: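 HEK293 cells stably expressing A2AR with a CRE-luc2P reporter were seeded in 1% FBS with 1 U/mL adenosine deaminase. After 18 h, cells got 3 nM CGS21680 plus antagonist at 0.1–10000 nM for 5 h, followed by a luciferase readout. IC50 is relative to the 3 nM CGS21680 signal, set as 100%.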
Chain of human A2A receptor (A2AR) (P29274 whole entry): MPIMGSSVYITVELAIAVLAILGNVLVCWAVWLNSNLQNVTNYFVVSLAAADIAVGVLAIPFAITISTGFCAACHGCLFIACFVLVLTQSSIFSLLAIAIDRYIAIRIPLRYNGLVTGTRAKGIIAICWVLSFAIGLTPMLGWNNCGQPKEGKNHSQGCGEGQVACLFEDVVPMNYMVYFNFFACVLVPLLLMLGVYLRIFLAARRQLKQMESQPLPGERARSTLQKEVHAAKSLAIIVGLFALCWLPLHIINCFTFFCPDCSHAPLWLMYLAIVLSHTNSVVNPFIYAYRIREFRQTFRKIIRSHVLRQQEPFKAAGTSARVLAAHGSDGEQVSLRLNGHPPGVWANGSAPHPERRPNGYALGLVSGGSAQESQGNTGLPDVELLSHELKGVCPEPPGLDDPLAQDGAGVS
(In a reporter assay the amount or activity of a reporter protein is the signal.)
Turning to `COCCOc1ccc(N2CCN(C(=O)C(c3ccc(C(F)(F)F)cc3)n3ncc4c3nc(N)n3nc(-c5ccco5)nc43)CC2)cc1` (stereo not drawn) [Compound A34, 2-(5-amino-2-(furan-2-yl)-7H-pyrazolo[4,3-e][1,2,4]triazolo[1,5-c]pyrimidin-7-yl)-1-(4-(4-(2-methoxyethoxy)phenyl)piperazin-1-yl)-2-(4-(trifluoromethyl)phenyl)ethan-1-one], the IC50 was determined as 75.7 nM.
The same measure for `CCCCC(C(=O)N1CCN(c2ccc(OCCNC)cc2)CC1)n1ncc2c1nc(N)n1nc(-c3ccco3)nc21` (stereo not drawn) [Compound A35, 2-(5-amino-2-(furan-2-yl)-7H-pyrazolo[4,3-e][1,2,4]triazolo[1,5-c]pyrimidin-7-yl)-1-(4-(4-(2-(methylamino)ethoxy)phenyl)piperazin-1-yl)hexan-1-one]: 5.8 nM; for `COCCOc1ccc(N2CCN(C(=O)C(c3cccc(C(F)(F)F)c3)n3ncc4c3nc(N)n3nc(-c5ccco5)nc43)CC2)cc1` (stereo not drawn) [Compound A36, 2-(5-amino-2-(furan-2-yl)-7H-pyrazolo[4,3-e][1,2,4]triazolo[1,5-c]pyrimidin-7-yl)-1-(4-(4-(2-methoxyethoxy)phenyl)piperazin-1-yl)-2-(3-(trifluoromethyl)phenyl)ethan-1-one]: 7.7 nM; for `CN(C)CCOc1ccc(N2CCN(C(=O)C(c3ccccc3)n3ncc4c3nc(N)n3nc(-c5ccco5)nc43)CC2)cc1` (stereo not drawn) [Compound A37, 2-(5-amino-2-(furan-2-yl)-7H-pyrazolo[4,3-e][1,2,4]triazolo[1,5-c]pyrimidin-7-yl)-1-(4-(4-(2-(dimethylamino)ethoxy)phenyl)piperazin-1-yl)-2-phenylethan-1-one]: 2.5 nM.
Turning to `COCCOc1ccc(N2CCN(C(=O)C(c3ccccc3C(F)(F)F)n3ncc4c3nc(N)n3nc(-c5ccco5)nc43)CC2)cc1` (stereo not drawn) [Compound A38, 2-(5-amino-2-(furan-2-yl)-7H-pyrazolo[4,3-e][1,2,4]triazolo[1,5-c]pyrimidin-7-yl)-1-(4-(4-(2-methoxyethoxy)phenyl)piperazin-1-yl)-2-(2-(trifluoromethyl)phenyl)ethan-1-one], half-maximal inhibition (IC50) was put at 0.6 nM.
Compound `CCCC(C(=O)N1CCN(c2ccc(OCCN(C)C)cc2)CC1)n1ncc2c1nc(N)n1nc(-c3ccco3)nc21` (stereo not drawn) [Compound A39, 2-(5-amino-2-(furan-2-yl)-7H-pyrazolo[4,3-e][1,2,4]triazolo[1,5-c]pyrimidin-7-yl)-1-(4-(4-(2-(dimethylamino)ethoxy)phenyl)piperazin-1-yl)pentan-1-one] gave an IC50 of 5.3 nM.
The same measure for `COCCOc1ccc(N2CCN(C(=O)C(c3ccc(F)c(F)c3)n3ncc4c3nc(N)n3nc(-c5ccco5)nc43)CC2)cc1` (stereo not drawn) [Compound A40, 2-(5-amino-2-(furan-2-yl)-7H-pyrazolo[4,3-e][1,2,4]triazolo[1,5-c]pyrimidin-7-yl)-2-(3,4-difluorophenyl)-1-(4-(4-(2-methoxyethoxy)phenyl)piperazin-1-yl)ethan-1-one]: 23.7 nM; for `COCCOc1ccc(N2CCN(C(=O)C(c3cccc(OC)c3)n3ncc4c3nc(N)n3nc(-c5ccco5)nc43)CC2)cc1` (stereo not drawn) [Compound A41, 2-(5-amino-2-(furan-2-yl)-7H-pyrazolo[4,3-e][1,2,4]triazolo[1,5-c]pyrimidin-7-yl)-1-(4-(4-(2-methoxyethoxy)phenyl)piperazin-1-yl)-2-(3-methoxyphenyl)ethan-1-one]: 5.8 nM; for `COCCOc1ccc(N2CCN(C(=O)C(c3cccc(F)c3)n3ncc4c3nc(N)n3nc(-c5ccco5)nc43)CC2)cc1` (stereo not drawn) [Compound A42, 2-(5-amino-2-(furan-2-yl)-7H-pyrazolo[4,3-e][1,2,4]triazolo[1,5-c]pyrimidin-7-yl)-2-(3-fluorophenyl)-1-(4-(4-(2-methoxyethoxy)phenyl)piperazin-1-yl)ethan-1-one]: 5.1 nM.
The same measure for `COCCOc1ccc(N2CCN(C(=O)C(c3ccccc3F)n3ncc4c3nc(N)n3nc(-c5ccco5)nc43)CC2)cc1` (stereo not drawn) [Compound A43, 2-(5-amino-2-(furan-2-yl)-7H-pyrazolo[4,3-e][1,2,4]triazolo[1,5-c]pyrimidin-7-yl)-2-(2-fluorophenyl)-1-(4-(4-(2-methoxyethoxy)phenyl)piperazin-1-yl)ethan-1-one]: 0.9 nM; for `COCCOc1ccc(N2CCN(C(=O)C(c3ccccc3)n3ncc4c3nc(N)n3nc(-c5ccco5)nc43)CC2)c(F)c1` (stereo not drawn) [Compound A44, 2-(5-amino-2-(furan-2-yl)-7H-pyrazolo[4,3-e][1,2,4]triazolo[1,5-c]pyrimidin-7-yl)-1-(4-(2-fluoro-4-(2-methoxyethoxy)phenyl)piperazin-1-yl)-2-phenylethan-1-one]: 2 nM.
The compound `CCCC(C(=O)N1CCN(c2ccc(F)cc2)CC1)n1ncc2c1nc(N)n1nc(-c3ccco3)nc21` (stereo not drawn) [Compound A45, 2-(5-amino-2-(furan-2-yl)-7H-pyrazolo[4,3-e][1,2,4]triazolo[1,5-c]pyrimidin-7-yl)-1-(4-(4-fluorophenyl)piperazin-1-yl)pentan-1-one] gave an IC50 of 6 nM.
Under `COCCOc1ccc(N2CCN(C(=O)C(c3ccccc3)n3ncc4c3nc(N)n3nc(-c5ccco5)nc43)C[C@@H]2C)cc1` (stereo partly drawn) [Compound A46, 2-(5-amino-2-(furan-2-yl)-7H-pyrazolo[4,3-e][1,2,4]triazolo[1,5-c]pyrimidin-7-yl)-1-((S)-4-(4-(2-methoxyethoxy)phenyl)-3-methylpiperazin-1-yl)-2-phenylethan-1-one] stands 2.9 nM; under `COCCOc1ccc(N2CCN(C(=O)C(c3ccccc3)n3ncc4c3nc(N)n3nc(-c5ccco5)nc43)C[C@H]2C)cc1` (stereo partly drawn) [Compound A47, 2-(5-amino-2-(furan-2-yl)-7H-pyrazolo[4,3-e][1,2,4]triazolo[1,5-c]pyrimidin-7-yl)-1-((R)-4-(4-(2-methoxyethoxy)phenyl)-3-methylpiperazin-1-yl)-2-phenylethan-1-one], 2.8 nM.
Consider `Nc1nc2c(cnn2C(C(=O)N2CCN(c3ccc(F)cc3F)CC2)c2ccccc2)c2nc(-c3ccco3)nn12` (stereo not drawn) [Compound A48, 2-(5-amino-2-(furan-2-yl)-7H-pyrazolo[4,3-e][1,2,4]triazolo[1,5-c]pyrimidin-7-yl)-1-(4-(2,4-difluorophenyl)piperazin-1-yl)-2-phenylethan-1-one], for which the midpoint of inhibition, the IC50, lay at 1.6 nM.
The compound `Nc1nc2c(cnn2C(C(=O)N2CCN(c3ccc(F)cc3)CC2)c2ccccc2)c2nc(-c3ccco3)nn12` (stereo not drawn) [Compound A49, 2-(5-amino-2-(furan-2-yl)-7H-pyrazolo[4,3-e][1,2,4]triazolo[1,5-c]pyrimidin-7-yl)-1-(4-(4-fluorophenyl)piperazin-1-yl)-2-phenylethan-1-one] registered an IC50 of 3.2 nM.
Under `COCCOc1ccc(N2CCN(C(=O)C(c3ccccc3)n3ncc4c3nc(N)n3nc(-c5ccco5)nc43)[C@H](C)C2)cc1` (stereo partly drawn) [Compound A50, 2-(5-amino-2-(furan-2-yl)-7H-pyrazolo[4,3-e][1,2,4]triazolo[1,5-c]pyrimidin-7-yl)-1-((R)-4-(4-(2-methoxyethoxy)phenyl)-2-methylpiperazin-1-yl)-2-phenylethan-1-one] stands 1.5 nM; under `CCCC(C(=O)N1CCN(c2ccc(OCCOC)c(F)c2F)CC1)n1ncc2c1nc(N)n1nc(-c3ccco3)nc21` (stereo not drawn) [Compound A51, 2-(5-amino-2-(furan-2-yl)-7H-pyrazolo[4,3-e][1,2,4]triazolo[1,5-c]pyrimidin-7-yl)-1-(4-(2,3-difluoro-4-(2-methoxyethoxy)phenyl)piperazin-1-yl)pentan-1-one], 4.8 nM.
The same measure for `COCCOc1ccc(N2CCN(C(=O)C(c3ccccc3)n3ncc4c3nc(N)n3nc(-c5ccco5)nc43)[C@@H](C)C2)cc1` (stereo partly drawn) [Compound A52, 2-(5-amino-2-(furan-2-yl)-7H-pyrazolo[4,3-e][1,2,4]triazolo[1,5-c]pyrimidin-7-yl)-1-((S)-4-(4-(2-methoxyethoxy)phenyl)-2-methylpiperazin-1-yl)-2-phenylethan-1-one]: 8.7 nM; for `CCCC(C(=O)N1CCN(c2ccc(OCCOC)c(F)c2)CC1)n1ncc2c1nc(N)n1nc(-c3ccco3)nc21` (stereo not drawn) [Compound A53, 2-(5-amino-2-(furan-2-yl)-7H-pyrazolo[4,3-e][1,2,4]triazolo[1,5-c]pyrimidin-7-yl)-1-(4-(3-fluoro-4-(2-methoxyethoxy)phenyl)piperazin-1-yl)pentan-1-one]: 5 nM.
The same measure for `CCCC(C(=O)N1CCN(c2cc(F)c(OCCOC)cc2F)CC1)n1ncc2c1nc(N)n1nc(-c3ccco3)nc21` (stereo not drawn) [Compound A54, 2-(5-amino-2-(furan-2-yl)-7H-pyrazolo[4,3-e][1,2,4]triazolo[1,5-c]pyrimidin-7-yl)-1-(4-(2,5-difluoro-4-(2-methoxyethoxy)phenyl)piperazin-1-yl)pentan-1-one]: 4.9 nM.
Consider `COCCOc1ccc(N2CCN(C(=O)C(c3ccccc3)n3ncc4c3nc(N)n3nc(-c5ccco5)nc43)CC2)cc1F` (stereo not drawn) [Compound A55, 2-(5-amino-2-(furan-2-yl)-7H-pyrazolo[4,3-e][1,2,4]triazolo[1,5-c]pyrimidin-7-yl)-1-(4-(3-fluoro-4-(2-methoxyethoxy)phenyl)piperazin-1-yl)-2-phenylethan-1-one], for which half-maximal inhibition (IC50) required 2.3 nM.
The compound `COCCOc1ccc(N2CCN(C(=O)C(c3ccccc3)n3ncc4c3nc(N)n3nc(-c5ccco5)nc43)CC2)c(F)c1F` (stereo not drawn) [Compound A56, 2-(5-amino-2-(furan-2-yl)-7H-pyrazolo[4,3-e][1,2,4]triazolo[1,5-c]pyrimidin-7-yl)-1-(4-(2,3-difluoro-4-(2-methoxyethoxy)phenyl)piperazin-1-yl)-2-phenylethan-1-one] registered an IC50 of 1.7 nM.
The same measure for `COCCOc1cc(F)c(N2CCN(C(=O)C(c3ccccc3)n3ncc4c3nc(N)n3nc(-c5ccco5)nc43)CC2)cc1F` (stereo not drawn) [Compound A57, 2-(5-amino-2-(furan-2-yl)-7H-pyrazolo[4,3-e][1,2,4]triazolo[1,5-c]pyrimidin-7-yl)-1-(4-(2,5-difluoro-4-(2-methoxyethoxy)phenyl)piperazin-1-yl)-2-phenylethan-1-one]: 5.3 nM.
